According to ChEMBL document CHEMBL5465560, “Selectivity Literature for EUbOPEN Chemogenomic Library” (2024):
pIC50: −log10 of the molar value. Blank lines part the entries; values can stand above or below the molecule they belong to.

Assays:
[1] = target: T1, Dual specificity tyrosine-phosphorylation-regulated kinase 3 (Homo sapiens, UniProt O43781); experiment: Selectivity interaction (Radioactive assay (Reaction Biology)) EUB0001046a DYRK3
T1 sequence (O43781 whole entry): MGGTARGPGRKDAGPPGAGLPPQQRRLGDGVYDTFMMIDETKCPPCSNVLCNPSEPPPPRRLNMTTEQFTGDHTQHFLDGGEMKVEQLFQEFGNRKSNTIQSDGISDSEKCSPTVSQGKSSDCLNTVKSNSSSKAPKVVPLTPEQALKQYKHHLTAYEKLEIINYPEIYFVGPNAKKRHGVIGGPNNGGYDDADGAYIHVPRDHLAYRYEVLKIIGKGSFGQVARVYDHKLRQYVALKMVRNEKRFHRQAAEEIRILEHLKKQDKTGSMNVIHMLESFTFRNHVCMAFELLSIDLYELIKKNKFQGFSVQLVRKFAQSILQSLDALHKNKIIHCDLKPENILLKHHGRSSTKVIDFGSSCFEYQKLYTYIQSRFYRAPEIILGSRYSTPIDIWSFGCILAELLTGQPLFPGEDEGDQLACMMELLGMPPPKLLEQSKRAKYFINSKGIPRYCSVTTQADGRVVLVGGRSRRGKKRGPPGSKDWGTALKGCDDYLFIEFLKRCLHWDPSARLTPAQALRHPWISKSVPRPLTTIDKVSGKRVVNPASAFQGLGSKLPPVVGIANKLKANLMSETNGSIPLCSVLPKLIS

[2] = target: Dual specificity protein kinase CLK2 (Homo sapiens, UniProt P49760); experiment: Selectivity interaction (Radioactive assay (Reaction Biology)) EUB0001046a CLK2
[3] = target: Dual specificity protein kinase CLK3 (Homo sapiens, UniProt P49761); experiment: Selectivity interaction (Radioactive assay (Reaction Biology)) EUB0001046a CLK3
[4] = target: T2, Dual specificity tyrosine-phosphorylation-regulated kinase 2 (Homo sapiens, UniProt Q92630); experiment: Selectivity interaction (Radioactive assay (Reaction Biology)) EUB0001046a DYRK2
T2 sequence (Q92630 whole entry): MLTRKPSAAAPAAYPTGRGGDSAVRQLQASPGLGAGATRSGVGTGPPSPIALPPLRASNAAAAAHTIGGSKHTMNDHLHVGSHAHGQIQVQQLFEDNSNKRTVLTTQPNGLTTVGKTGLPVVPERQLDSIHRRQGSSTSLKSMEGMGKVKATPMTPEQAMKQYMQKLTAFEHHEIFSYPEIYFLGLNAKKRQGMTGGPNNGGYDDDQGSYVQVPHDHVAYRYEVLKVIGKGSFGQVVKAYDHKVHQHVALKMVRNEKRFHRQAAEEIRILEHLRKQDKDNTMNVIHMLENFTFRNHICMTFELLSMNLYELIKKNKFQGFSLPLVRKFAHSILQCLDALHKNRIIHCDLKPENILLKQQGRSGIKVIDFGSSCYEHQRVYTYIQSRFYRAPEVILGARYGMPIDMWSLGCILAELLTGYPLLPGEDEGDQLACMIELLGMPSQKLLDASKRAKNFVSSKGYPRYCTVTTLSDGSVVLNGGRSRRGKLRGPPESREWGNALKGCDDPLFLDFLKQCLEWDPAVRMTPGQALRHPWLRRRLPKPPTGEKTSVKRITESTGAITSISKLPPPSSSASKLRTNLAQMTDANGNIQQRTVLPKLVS

[5] = target: SRSF protein kinase 2 (Homo sapiens) (UniProt P78362)
SRSF protein kinase 1 [6] = target: T3, SRSF protein kinase 1 (Homo sapiens, UniProt Q96SB4)
[7] = target: Dual specificity tyrosine-phosphorylation-regulated kinase 1B (Homo sapiens, UniProt Q9Y463); experiment: Selectivity interaction (Radioactive assay (Reaction Biology)) EUB0001046a DYRK1B
SRSF protein kinase 1 [8] = target: T3, SRSF protein kinase 1; remark: listed apart in the source
[9] = target: Dual specificity tyrosine-phosphorylation-regulated kinase 1A (Homo sapiens, UniProt Q13627); experiment: Selectivity interaction (Radioactive assay (Reaction Biology)) EUB0001046a DYRK1A
[10] = target: Dual specificity protein kinase CLK4 (Homo sapiens, UniProt Q9HAZ1); experiment: Selectivity interaction (Radioactive assay (Reaction Biology)) EUB0001046a CLK4
[11] = target: Dual specificity protein kinase CLK1 (Homo sapiens, UniProt P49759); experiment: Selectivity interaction (Radioactive assay (Reaction Biology)) EUB0001046a CLK1
[12] = target: Tyrosine-protein kinase JAK2 (Homo sapiens, UniProt O60674); experiment: Selectivity interaction (Kinase panel (Enzymatic assay, microfluidic mobility shift readout, Caliper lifesciences, conc. ATP = Km for each kinase)) EUB0000678a JAK2
[13] = Selectivity interaction (Kinase panel (cellular selectivity, Bright-Glo proliferation assay in BaF3 Cell line, Promega)) EUB0000678a KDR
[14] = target: Calcium/calmodulin-dependent protein kinase type II subunit alpha (Homo sapiens, UniProt Q9UQM7); experiment: Selectivity interaction (Kinase panel (Enzymatic assay, microfluidic mobility shift readout, Caliper lifesciences, conc. ATP = Km for each kinase)) EUB0000678a CAMK2A
[15] = target: Tyrosine-protein kinase SYK (Homo sapiens, UniProt P43405); experiment: Selectivity interaction (Kinase panel (Enzymatic assay, microfluidic mobility shift readout, Caliper lifesciences, conc. ATP = Km for each kinase)) EUB0000678a SYK
[16] = target: Mitogen-activated protein kinase 14 (Homo sapiens, UniProt Q16539); experiment: Selectivity interaction (Kinase panel (Enzymatic assay, microfluidic mobility shift readout, Caliper lifesciences, conc. ATP = Km for each kinase)) EUB0000678a MAPK14
[17] = Selectivity interaction (Kinase panel (cellular selectivity, Bright-Glo proliferation assay in BaF3 Cell line, Promega)) EUB0000678a SRC
[18] = target: Tyrosine-protein kinase JAK1 (Homo sapiens, UniProt P23458); experiment: Selectivity interaction (Kinase panel (Enzymatic assay, microfluidic mobility shift readout, Caliper lifesciences, conc. ATP = Km for each kinase)) EUB0000678a JAK1
[19] = Selectivity interaction (Kinase panel (cellular selectivity, Bright-Glo proliferation assay in BaF3 Cell line, Promega)) EUB0000678a TEK
[20] = target: Non-receptor tyrosine-protein kinase TYK2 (Homo sapiens, UniProt P29597); experiment: Selectivity interaction (Kinase panel (Enzymatic assay, microfluidic mobility shift readout, Caliper lifesciences, conc. ATP = Km for each kinase)) EUB0000678a TYK2
[21] = Selectivity interaction (Kinase panel (cellular selectivity, Bright-Glo proliferation assay in BaF3 Cell line, Promega)) EUB0000678a ALK
[22] = Selectivity interaction (Kinase panel (cellular selectivity, Bright-Glo proliferation assay in BaF3 Cell line, Promega)) EUB0000678a FLT1
[23] = Selectivity interaction (Kinase panel (cellular selectivity, Bright-Glo proliferation assay in BaF3 Cell line, Promega)) EUB0000678a INSR
[24] = target: Hepatocyte growth factor receptor (Homo sapiens, UniProt P08581); experiment: Selectivity interaction (Kinase panel (Enzymatic assay, microfluidic mobility shift readout, Caliper lifesciences, conc. ATP = Km for each kinase)) EUB0000678a MET
[25] = Selectivity interaction (Kinase panel (cellular selectivity, Bright-Glo proliferation assay in BaF3 Cell line, Promega)) EUB0000678a FLT4
[26] = Selectivity interaction (Kinase panel (cellular selectivity, Bright-Glo proliferation assay in BaF3 Cell line, Promega)) EUB0000678a TYK2
[27] = Selectivity interaction (Kinase panel (cellular selectivity, Bright-Glo proliferation assay in BaF3 Cell line, Promega)) EUB0000678a RET
[28] = target: Serine/threonine-protein kinase mTOR (Homo sapiens, UniProt P42345); experiment: Selectivity interaction (Kinase panel (KinaseGlo Luminescent Kinase Assay, Promega)) EUB0000678a MTOR
[29] = target: cAMP-dependent protein kinase catalytic subunit alpha (Homo sapiens, UniProt P17612); experiment: Selectivity interaction (Kinase panel (Enzymatic assay, microfluidic mobility shift readout, Caliper lifesciences, conc. ATP = Km for each kinase)) EUB0000678a PRKACA
[30] = Selectivity interaction (Kinase panel (cellular selectivity, Bright-Glo proliferation assay in BaF3 Cell line, Promega)) EUB0000678a JAK2
[31] = Selectivity interaction (Kinase panel (cellular selectivity, Bright-Glo proliferation assay in BaF3 Cell line, Promega)) EUB0000678a LYN
[32] = Selectivity interaction (Kinase panel (cellular selectivity, Bright-Glo proliferation assay in BaF3 Cell line, Promega)) EUB0000678a KDR; remark: listed apart in the source
[33] = target: Phosphatidylinositol 3-kinase catalytic subunit type 3 (Homo sapiens, UniProt Q8NEB9); experiment: Selectivity interaction (Kinase panel (KinaseGlo Luminescent Kinase Assay, Promega)) EUB0000678a PIK3C3
[34] = Selectivity interaction (Kinase panel (cellular selectivity, Bright-Glo proliferation assay in BaF3 Cell line, Promega)) EUB0000678a BMX
[35] = Selectivity interaction (Kinase panel (cellular selectivity, Bright-Glo proliferation assay in BaF3 Cell line, Promega)) EUB0000678a ROS1
[36] = Selectivity interaction (Kinase panel (cellular selectivity, Bright-Glo proliferation assay in BaF3 Cell line, Promega)) EUB0000678a SYK
[37] = Selectivity interaction (Kinase panel (cellular selectivity, Bright-Glo proliferation assay in BaF3 Cell line, Promega)) EUB0000678a MET
[38] = target: T4, Interleukin-1 receptor-associated kinase 4 (Homo sapiens, UniProt Q9NWZ3); experiment: Selectivity interaction (Kinase panel (Enzymatic assay, microfluidic mobility shift readout, Caliper lifesciences, conc. ATP = Km for each kinase)) EUB0000678a IRAK4
T4 sequence (Q9NWZ3 whole entry): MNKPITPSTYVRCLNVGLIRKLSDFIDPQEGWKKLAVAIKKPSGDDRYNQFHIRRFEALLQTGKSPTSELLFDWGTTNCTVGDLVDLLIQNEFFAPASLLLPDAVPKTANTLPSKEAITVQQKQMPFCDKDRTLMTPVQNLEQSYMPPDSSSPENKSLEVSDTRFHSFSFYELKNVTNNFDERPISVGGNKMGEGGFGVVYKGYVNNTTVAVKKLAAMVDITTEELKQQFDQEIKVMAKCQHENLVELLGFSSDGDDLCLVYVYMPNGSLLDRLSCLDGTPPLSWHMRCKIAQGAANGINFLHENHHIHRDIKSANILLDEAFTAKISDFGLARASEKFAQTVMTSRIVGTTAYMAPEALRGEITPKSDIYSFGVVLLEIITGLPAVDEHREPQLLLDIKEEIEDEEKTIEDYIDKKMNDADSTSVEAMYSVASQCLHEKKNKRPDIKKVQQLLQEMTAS

[39] = Selectivity interaction (Kinase panel (cellular selectivity, Bright-Glo proliferation assay in BaF3 Cell line, Promega)) EUB0000678a EPHB1
[40] = Selectivity interaction (Kinase panel (cellular selectivity, Bright-Glo proliferation assay in BaF3 Cell line, Promega)) EUB0000678a NTRK2
[41] = target: Ribosomal protein S6 kinase alpha-1 (Homo sapiens, UniProt Q15418); experiment: Selectivity interaction (Kinase panel (Enzymatic assay, microfluidic mobility shift readout, Caliper lifesciences, conc. ATP = Km for each kinase)) EUB0000678a RPS6KA1
[42] = target: Cyclin-dependent kinase 2 (Homo sapiens, UniProt P24941); experiment: Selectivity interaction (Kinase panel (Enzymatic assay, microfluidic mobility shift readout, Caliper lifesciences, conc. ATP = Km for each kinase)) EUB0000678a CDK2

T3 sequence (Q96SB4 whole entry): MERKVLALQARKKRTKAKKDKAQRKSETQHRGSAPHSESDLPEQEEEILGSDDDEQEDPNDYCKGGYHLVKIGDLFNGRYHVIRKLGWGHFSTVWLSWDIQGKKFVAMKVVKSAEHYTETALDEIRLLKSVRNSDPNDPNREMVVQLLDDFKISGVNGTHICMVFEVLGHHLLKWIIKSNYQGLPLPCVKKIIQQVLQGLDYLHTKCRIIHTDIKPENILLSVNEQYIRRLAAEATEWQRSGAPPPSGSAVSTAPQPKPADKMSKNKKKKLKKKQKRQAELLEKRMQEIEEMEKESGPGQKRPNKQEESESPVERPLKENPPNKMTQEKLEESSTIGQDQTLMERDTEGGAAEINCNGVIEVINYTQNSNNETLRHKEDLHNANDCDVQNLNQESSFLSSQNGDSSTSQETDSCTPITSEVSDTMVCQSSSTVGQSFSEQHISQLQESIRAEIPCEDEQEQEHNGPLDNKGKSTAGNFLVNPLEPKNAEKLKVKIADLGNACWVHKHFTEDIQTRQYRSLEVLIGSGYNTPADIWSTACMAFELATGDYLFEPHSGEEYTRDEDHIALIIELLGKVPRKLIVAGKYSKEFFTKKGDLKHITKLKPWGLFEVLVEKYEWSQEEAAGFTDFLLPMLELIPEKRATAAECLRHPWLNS
Chain of Hepatocyte growth factor receptor (P08581 whole entry): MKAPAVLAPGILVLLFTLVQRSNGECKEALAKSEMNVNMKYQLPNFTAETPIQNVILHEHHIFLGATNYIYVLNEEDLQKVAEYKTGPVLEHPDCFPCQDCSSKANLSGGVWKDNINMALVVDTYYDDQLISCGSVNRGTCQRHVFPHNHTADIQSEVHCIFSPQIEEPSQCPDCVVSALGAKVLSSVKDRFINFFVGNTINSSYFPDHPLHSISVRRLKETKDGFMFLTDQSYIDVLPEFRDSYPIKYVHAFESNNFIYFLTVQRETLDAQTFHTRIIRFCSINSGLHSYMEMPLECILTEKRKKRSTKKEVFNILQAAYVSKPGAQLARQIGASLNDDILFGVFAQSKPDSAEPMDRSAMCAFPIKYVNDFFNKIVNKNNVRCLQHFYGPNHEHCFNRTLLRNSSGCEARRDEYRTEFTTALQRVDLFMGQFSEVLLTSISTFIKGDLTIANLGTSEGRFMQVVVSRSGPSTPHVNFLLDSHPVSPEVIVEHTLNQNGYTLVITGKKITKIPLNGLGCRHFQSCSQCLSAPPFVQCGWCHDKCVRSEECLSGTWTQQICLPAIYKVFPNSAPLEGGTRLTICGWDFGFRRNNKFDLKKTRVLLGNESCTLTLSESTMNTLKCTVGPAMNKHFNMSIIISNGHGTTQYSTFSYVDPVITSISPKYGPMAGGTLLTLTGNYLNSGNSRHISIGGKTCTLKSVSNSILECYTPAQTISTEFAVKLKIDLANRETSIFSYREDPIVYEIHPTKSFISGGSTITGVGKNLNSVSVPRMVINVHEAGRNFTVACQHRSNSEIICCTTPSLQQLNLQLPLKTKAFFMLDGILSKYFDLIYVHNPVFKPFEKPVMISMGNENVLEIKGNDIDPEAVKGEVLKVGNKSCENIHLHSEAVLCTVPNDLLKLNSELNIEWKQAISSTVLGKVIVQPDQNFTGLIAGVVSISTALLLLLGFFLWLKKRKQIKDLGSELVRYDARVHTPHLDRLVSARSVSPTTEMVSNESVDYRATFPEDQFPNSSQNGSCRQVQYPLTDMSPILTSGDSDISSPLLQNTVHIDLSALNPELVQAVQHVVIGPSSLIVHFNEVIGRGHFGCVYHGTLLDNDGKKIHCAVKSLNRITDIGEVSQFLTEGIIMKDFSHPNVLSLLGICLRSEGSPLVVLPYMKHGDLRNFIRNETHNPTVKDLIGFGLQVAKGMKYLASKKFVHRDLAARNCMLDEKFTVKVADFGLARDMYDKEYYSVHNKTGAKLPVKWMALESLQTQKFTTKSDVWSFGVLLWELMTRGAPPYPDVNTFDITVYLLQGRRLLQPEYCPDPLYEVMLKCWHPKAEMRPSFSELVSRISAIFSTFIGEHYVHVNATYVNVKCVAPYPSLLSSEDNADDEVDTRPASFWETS
Chain of SRSF protein kinase 2 (Homo sapiens) (P78362 whole entry, looked up): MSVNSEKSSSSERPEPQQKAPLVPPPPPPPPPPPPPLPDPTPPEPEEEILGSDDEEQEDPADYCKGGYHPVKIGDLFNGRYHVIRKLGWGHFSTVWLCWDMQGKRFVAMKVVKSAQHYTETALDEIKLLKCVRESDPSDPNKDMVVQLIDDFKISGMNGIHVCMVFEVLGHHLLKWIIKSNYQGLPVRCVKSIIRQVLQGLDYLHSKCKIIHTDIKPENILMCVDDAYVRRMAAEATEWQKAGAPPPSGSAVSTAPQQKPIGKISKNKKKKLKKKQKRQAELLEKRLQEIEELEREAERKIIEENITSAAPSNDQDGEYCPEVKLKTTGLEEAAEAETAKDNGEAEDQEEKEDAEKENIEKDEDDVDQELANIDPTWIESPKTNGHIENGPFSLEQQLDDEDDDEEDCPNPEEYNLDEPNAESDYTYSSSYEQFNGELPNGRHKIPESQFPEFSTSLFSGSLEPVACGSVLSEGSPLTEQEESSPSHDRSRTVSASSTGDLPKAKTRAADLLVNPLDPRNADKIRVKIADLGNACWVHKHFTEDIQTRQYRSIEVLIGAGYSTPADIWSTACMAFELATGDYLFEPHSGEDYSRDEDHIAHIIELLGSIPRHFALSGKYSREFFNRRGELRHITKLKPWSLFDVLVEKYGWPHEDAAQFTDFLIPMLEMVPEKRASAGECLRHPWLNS
Chain of Dual specificity tyrosine-phosphorylation-regulated kinase 1B (Q9Y463 whole entry): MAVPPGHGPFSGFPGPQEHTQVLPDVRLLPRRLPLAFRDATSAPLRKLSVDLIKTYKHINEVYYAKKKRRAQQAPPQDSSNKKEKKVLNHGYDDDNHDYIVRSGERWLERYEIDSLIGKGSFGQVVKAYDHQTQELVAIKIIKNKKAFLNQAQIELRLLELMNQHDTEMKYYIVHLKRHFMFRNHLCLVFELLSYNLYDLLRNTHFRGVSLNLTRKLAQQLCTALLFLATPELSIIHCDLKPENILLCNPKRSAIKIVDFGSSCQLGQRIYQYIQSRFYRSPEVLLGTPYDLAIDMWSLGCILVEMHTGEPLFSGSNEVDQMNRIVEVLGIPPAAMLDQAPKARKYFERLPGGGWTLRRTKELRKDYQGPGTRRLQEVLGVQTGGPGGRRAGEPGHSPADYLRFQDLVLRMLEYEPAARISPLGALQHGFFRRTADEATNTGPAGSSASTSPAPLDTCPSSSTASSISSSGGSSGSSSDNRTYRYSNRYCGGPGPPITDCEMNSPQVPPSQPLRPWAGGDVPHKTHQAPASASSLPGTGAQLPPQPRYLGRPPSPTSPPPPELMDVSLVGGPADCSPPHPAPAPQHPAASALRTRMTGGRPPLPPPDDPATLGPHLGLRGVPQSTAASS
Chain of Dual specificity protein kinase CLK3 (P49761 whole entry): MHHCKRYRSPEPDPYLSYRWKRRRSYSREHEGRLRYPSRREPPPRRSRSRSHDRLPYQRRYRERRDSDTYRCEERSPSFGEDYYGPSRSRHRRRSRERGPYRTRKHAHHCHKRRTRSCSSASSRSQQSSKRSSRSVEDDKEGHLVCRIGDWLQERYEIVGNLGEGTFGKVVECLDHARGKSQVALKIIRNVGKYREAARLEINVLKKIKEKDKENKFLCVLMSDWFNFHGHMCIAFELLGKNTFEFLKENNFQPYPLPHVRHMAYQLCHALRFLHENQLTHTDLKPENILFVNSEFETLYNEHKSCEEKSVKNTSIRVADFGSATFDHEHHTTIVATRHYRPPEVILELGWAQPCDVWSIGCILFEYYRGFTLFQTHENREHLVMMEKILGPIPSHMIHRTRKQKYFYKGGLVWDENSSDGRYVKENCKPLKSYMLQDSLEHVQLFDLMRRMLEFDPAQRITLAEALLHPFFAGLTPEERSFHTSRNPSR
Chain of Non-receptor tyrosine-protein kinase TYK2 (P29597 whole entry): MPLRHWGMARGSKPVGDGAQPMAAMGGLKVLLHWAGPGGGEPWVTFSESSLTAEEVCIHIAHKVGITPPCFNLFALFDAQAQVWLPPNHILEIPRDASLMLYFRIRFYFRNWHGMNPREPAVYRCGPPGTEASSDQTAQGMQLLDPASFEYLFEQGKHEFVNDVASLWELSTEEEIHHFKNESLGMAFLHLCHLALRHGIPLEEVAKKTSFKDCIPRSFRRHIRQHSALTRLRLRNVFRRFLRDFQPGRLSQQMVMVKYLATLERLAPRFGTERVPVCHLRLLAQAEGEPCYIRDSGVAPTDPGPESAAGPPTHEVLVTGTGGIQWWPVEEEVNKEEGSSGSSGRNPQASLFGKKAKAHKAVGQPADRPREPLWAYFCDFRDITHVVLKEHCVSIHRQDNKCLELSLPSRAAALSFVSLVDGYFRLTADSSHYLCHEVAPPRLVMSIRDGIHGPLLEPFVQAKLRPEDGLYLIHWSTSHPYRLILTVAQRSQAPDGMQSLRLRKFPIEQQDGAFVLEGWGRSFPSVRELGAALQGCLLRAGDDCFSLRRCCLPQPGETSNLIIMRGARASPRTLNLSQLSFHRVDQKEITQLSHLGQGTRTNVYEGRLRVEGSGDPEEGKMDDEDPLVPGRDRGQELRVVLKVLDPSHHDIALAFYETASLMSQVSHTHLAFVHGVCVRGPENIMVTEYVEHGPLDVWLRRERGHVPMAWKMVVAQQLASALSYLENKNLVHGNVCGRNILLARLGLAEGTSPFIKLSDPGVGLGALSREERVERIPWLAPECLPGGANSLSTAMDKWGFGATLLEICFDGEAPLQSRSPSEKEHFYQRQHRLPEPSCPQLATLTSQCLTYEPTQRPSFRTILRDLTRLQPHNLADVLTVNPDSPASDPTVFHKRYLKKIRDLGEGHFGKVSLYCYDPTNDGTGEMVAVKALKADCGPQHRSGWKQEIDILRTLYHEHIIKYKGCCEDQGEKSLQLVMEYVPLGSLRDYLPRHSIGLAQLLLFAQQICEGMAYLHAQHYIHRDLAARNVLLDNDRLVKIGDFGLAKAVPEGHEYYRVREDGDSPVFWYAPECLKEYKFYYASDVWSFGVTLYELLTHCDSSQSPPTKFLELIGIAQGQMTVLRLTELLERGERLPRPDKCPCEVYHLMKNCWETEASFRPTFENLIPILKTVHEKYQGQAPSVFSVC

pIC50 [1]: < 5.00
pIC50 [2]: < 5.00
pIC50 [3]: < 5.00
pIC50 [4]: < 5.00
dTM [5]: 0.3 K
dTM (SRSF protein kinase 1 [6]): 0.5 K
pIC50 [7]: < 5.00
pIC50 (SRSF protein kinase 1 [8]): < 4.30
pIC50 [9]: < 5.00
pIC50 [10]: < 5.00
pIC50 [11]: < 5.00
SMILES: CN(c1ncccc1CNc1ccnc(-c2cc3cc(Cl)ccc3[nH]2)n1)S(C)(=O)=O

pIC50 [12]: < 5.00
pIC50 [13]: 5.84
pIC50 [14]: < 5.00
pIC50 [15]: < 5.00
pIC50 [16]: < 5.00
pIC50 [17]: 5.53
pIC50 [18]: < 5.00
pIC50 [19]: 5.69
pIC50 [20]: < 5.00
pIC50 [21]: 5.51
pIC50 [22]: 5.82
pIC50 [23]: 5.47
pIC50 [24]: < 5.00
pIC50 [25]: 5.68
pIC50 [26]: 5.48
pIC50 [27]: 5.47
pIC50 [28]: < 5.05
pIC50 [29]: < 5.00
pIC50 [30]: 5.54
pIC50 [31]: 5.52
pIC50 [32]: 6.03
pIC50 [33]: < 5.05
pIC50 [34]: 5.47
pIC50 [35]: 5.49
pIC50 [36]: 5.27
pIC50 [37]: 5.52
pIC50 [38]: < 5.00
pIC50 [39]: 5.52
pIC50 [40]: 5.50
pIC50 [41]: < 5.00
pIC50 [42]: < 5.00
SMILES: CCN1CCN(c2ccc(Nc3cc(N(C)C(=O)Nc4c(Cl)c(OC)cc(OC)c4Cl)ncn3)cc2)CC1 [INFIGRATINIB]
